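Dose response: 5 concentrations. Exposure: 48 h. Format: 96-well plates. Endpoint: linear interpolation; highest concentration if not reached. The concentration for 50% growth inhibition is given as GI50.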 Calls of active or inactive are those of the source. No stated cut-off is given here; in the data, active = GI50 up to about 1.1 µM and inactive = higher.
Columns and labels:
Test in all cases: NCI anticancer screen, dose series, 48 h
LXFL 529 = tested on: LXFL 529
HOP-18 = tested on: HOP-18
DMS-273 = tested on: DMS-273
KM-20L2 = tested on: KM-20L2
DMS-114 = tested on: DMS-114
M19-MEL = tested on: M19-MEL
SNB-78 = tested on: SNB-78
DLD-1 = tested on: DLD-1
RXF 631 = tested on: RXF 631

Structure (SMILES)	GI50 (LXFL 529)	GI50 (HOP-18)	GI50 (DMS-273)	GI50 (KM-20L2)	GI50 (DMS-114)	GI50 (M19-MEL)	GI50 (SNB-78)	GI50 (DLD-1)	GI50 (RXF 631)
C=C(N=[N+]=[N-])c1cn(C2CC(O)C(CO)O2)c(=O)[nH]c1=O (stereo unspecified)	> 100 µM (inactive)	> 100 µM (inactive)	> 100 µM (inactive)	> 100 µM (inactive)	> 100 µM (inactive)	> 100 µM (inactive)	> 100 µM (inactive)	> 100 µM (inactive)	
N=C(Nc1nc(-c2ccccn2)cc2ccccc12)c1ccccn1	0.00242 µM (active)	0.301 µM (active)	0.00512 µM (active)		0.00108 µM (active)	0.232 µM (active)	3.33 µM (inactive)	0.0019 µM (active)	0.01 µM (active)
COc1ccc2[nH]c3c(C)c4cc[n+](C)cc4c(C)c3c2c1		3.95 µM (inactive)	0.838 µM (active)	3.3 µM (inactive)	0.219 µM (active)	0.661 µM (active)	0.406 µM (active)	1.06 µM (active)	
COc1ccc(Cc2c3cc(OC)c(OC)cc3cc[n+]2C)cc1	3.18 µM (inactive)	> 27.9 µM (inactive)	2.22 µM (inactive)	10.3 µM (inactive)	2.82 µM (inactive)	12.6 µM (inactive)	58.1 µM (inactive)	> 18 µM (inactive)	> 10.3 µM (inactive)
Cc1c(/C=N/N(C)C)oc2c1cc(O)c1ncccc12	7.98 µM (inactive)	1.77 µM (inactive)	5.31 µM (inactive)	34.5 µM (inactive)	2.87 µM (inactive)			3.67 µM (inactive)	
C/C(CCn1[nH]c(=O)ccc1=O)=N\NC(=O)C(=O)NN	> 100 µM (inactive)	> 100 µM (inactive)	> 100 µM (inactive)	> 100 µM (inactive)		> 100 µM (inactive)		> 100 µM (inactive)	> 100 µM (inactive)
Cc1cccc(C(=O)c2cccc3ccccc23)c1C(=O)O	> 100 µM (inactive)	50.9 µM (inactive)	> 100 µM (inactive)	> 100 µM (inactive)	3.24 µM (inactive)	> 100 µM (inactive)	> 100 µM (inactive)	> 100 µM (inactive)	> 100 µM (inactive)
O=[N+]([O-])c1ccc(COc2cccc3cccnc23)cc1	23.5 µM (inactive)	31.5 µM (inactive)	4.53 µM (inactive)	33.3 µM (inactive)	2.19 µM (inactive)	15.1 µM (inactive)	38.2 µM (inactive)	13.9 µM (inactive)	13.9 µM (inactive)
CCC(C)CN1C(=O)NC(Cc2ccccc2)C1=O (stereo unspecified)	> 100 µM (inactive)	0.119 µM (active)	> 100 µM (inactive)	> 100 µM (inactive)	> 100 µM (inactive)	> 100 µM (inactive)	> 100 µM (inactive)	> 100 µM (inactive)	

From ChEMBL document CHEMBL1201862, “PubChem BioAssay data set” (2004)
